Common to all, as to experiment: growth of human tumour cells (NCI), 48 h
For test [1], the system named is MOLT-4 leukemia.
The test system of test [2] is SF-295 CNS.
Test [3] deals with HOP-62 NSCLC.
Test [4] relates to KM12 colon.
Test [5] deals with DU-145 prostate.
The test system of test [6] is TK-10 renal.
The test system of test [7] is SF-268 CNS.
Test [8] deals with NCI-H460 lung.
The subject of test [9] is IGROV1 ovarian.
Test [10] deals with SNB-75 CNS.

Values joined by “and” are separate entries in the source; they are usually repeats but may differ in a detail not shown here. Equal values may be shown once.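 Five concentrations, 48 hours, 96-well plates. At the GI50, growth is halved. At the TGI there is no net growth.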

As to `Nc1ccc(-c2ccc(-c3nc4cc(Cl)c(Cl)cc4[nH]3)cc2)cc1`, the GI50 was 1.66 µM in test [1]; 0.419 µM in test [2]; 11.7 µM in test [3]; 0.826 µM in [4]; 2.36 µM in [5]; 1.63 µM in [6]. Moreover, the GI50 in test [8] is 0.878 µM; in test [9] it was 12.1 µM; in test [10], 16.3 µM. The TGI was more than 85 µM in [1]; more than 50.5 µM in [3]; 98.4 µM in [5]; 37.4 µM in [6]; 9.24 µM in test [7]; more than 31.9 µM in [8]. For the same molecule, the figures for the TGI in test [9] and in test [10] were more than 100 µM and 55.9 µM, respectively.
As for `CNC(=O)CN1CCC(Oc2cc3c(Nc4cccc(Cl)c4F)ncnc3cc2OC)CC1`, the GI50 in [1] was 16 µM and > 6.28 µM; in [2] it was 12.5 µM and > 5.62 µM; in test [3], 7.91 µM and 3.95 µM; in test [4] it was 17.3 µM and > 5.89 µM; in [5] it was 3.64 µM and 2.19 µM; in test [6] it was 0.0237 µM and 0.00744 µM. The GI50 was 8.25 µM and 4.25 µM in test [7]; 28.1 µM and > 6.73 µM in [8]; 0.303 µM and 0.084 µM in test [9]; 2.09 µM and 1.84 µM in test [10]. In addition, the TGI was more than 74.5 µM in [1]; 29.3 µM and > 10 µM in test [2]; 70.4 µM and > 10 µM in test [3]; 32.4 µM and > 10 µM in test [4]; more than 56 µM in [5]; 14.8 µM and > 10 µM in test [6]. For the same molecule, the TGI in [7] is more than 45.2 µM; in [8], more than 100 µM; in [9], 5.37 µM and 4.3 µM; in test [10], 10.8 µM and > 10 µM.
On to `COc1ccc(C2CC(=O)c3c(O)c(OC)c(OC)c(OC)c3O2)cc1O` (stereo unspecified), for which the GI50 was 0.105 µM in [1]; 0.374 µM in test [2]; 0.377 µM in test [3]; 0.0585 µM in test [4]; 0.225 µM in [5]; more than 31.4 µM in test [6]. The GI50 was 0.407 µM in test [7], 0.195 µM in test [8], 0.976 µM in [9] and 0.0358 µM in test [10]. Further, the TGI in [1], in test [2], in test [3], in test [4], in test [5] and in [6] was more than 100 µM throughout. Besides, the TGI in [7], in test [9] and in test [10] was more than 100 µM throughout.
For `CCN1CCN(c2ccc(Nc3ncc4ccc5ncn(C(C)C)c5c4n3)nc2)CC1`, the GI50 is 0.0416 µM in test [1]; 0.224 µM in test [2]; 0.0923 µM in test [3]; 0.123 µM in test [4]; 0.126 µM in test [5]; 0.0359 µM in [6]. Moreover, the GI50 in test [7] is 0.117 µM; in [8], 0.0777 µM; in [9], 0.0347 µM; in test [10] it was 0.14 µM. Besides, the TGI in test [1] was 1.91 µM; in test [2], 0.794 µM; in [3] it was 3.22 µM; in test [4] it was 0.719 µM; in test [5], 4.3 µM; in test [6], 0.873 µM. In addition, the TGI in test [7] was determined as 0.47 µM; in test [8] it was 0.68 µM; in test [9], 1.6 µM; in test [10] it was 0.415 µM.
For the molecule `Cc1nc2sc(C(=O)Nc3cccc(Br)c3)c(N)c2cc1C(O)c1ccccc1` (stereo unspecified), the GI50 was 0.58 µM in [1]; 0.765 µM in test [2]; 1.57 µM in test [3]; 0.689 µM in [4]; 0.672 µM in [5]; 2.22 µM in test [6]. The GI50 is 1.81 µM in test [7], 0.391 µM in [8], 1.94 µM in test [9] and 0.224 µM in test [10]. Besides, the TGI in [1] was more than 100 µM; in [2], 12.1 µM; in test [3], 32.4 µM; in test [4] it was 12.6 µM; in [5], 13.9 µM; in [6], 26.7 µM. Further, the TGI in [7] stood at 20.2 µM; in test [8], 4.74 µM; in test [9], 16.6 µM; in [10], 4.15 µM.
For the molecule `CC(=O)[O][Bi]([c]1ccccc1)[c]1ccccc1`, the GI50 was 2.9 µM in test [1]; 17.5 µM in [2]; 17 µM in test [3]; 15.8 µM in test [4]; 21.3 µM in test [5]; 1.85 µM in test [6]. The GI50 in test [7] is 14.4 µM; in [8], 18.1 µM; in test [9] it was 2.48 µM; in test [10], 16.4 µM. For the same molecule, the TGI in test [1] was more than 100 µM; in test [2] it was 33.4 µM; in test [3] it was 33.8 µM; in [4], 30.1 µM; in test [5], 50.2 µM; in [6] it was 6.38 µM. Besides, the TGI is 29.9 µM in [7], 36.4 µM in test [8], 6.77 µM in test [9] and 30.2 µM in test [10].
With `CCOC(=O)N1C=CC(=C2C(=C3C=CN(C(=O)OCC)C=C3)C(=C3C=CN(C(=O)OCC)C=C3)C2=C2C=CN(C(=O)OCC)C=C2)C=C1`, the TGI is 45.1 µM in test [1]; 92.3 µM in [2]; more than 100 µM in test [3]; more than 100 µM in test [4]; more than 100 µM in test [5]; 81.6 µM in test [6]. The TGI in test [7] is more than 100 µM; in test [8] it was more than 100 µM; in test [9], 85.3 µM; in [10], more than 100 µM.
